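How tested: cells in 96-well plates exposed to compound for 48 hours at five concentrations. Abbreviation: GI50, concentration required for 50% inhibition of growth.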 Calls of active or inactive are those of the source. No stated cut-off is given here; in the data, active = GI50 up to about 1.1 µM and inactive = higher.
Key:
Test in all cases: DTP human tumour cell line panel, 48 h
[1] = tested on: M19-MEL
[2] = tested on: XF498
[3] = tested on: DMS-114
[4] = tested on: Hs-578T
[5] = tested on: LXFL 529
[6] = tested on: SNB-78
[7] = tested on: DMS-273
[8] = tested on: DLD-1
[9] = tested on: RXF 631

SMILES	GI50 [3]	GI50 [4]	GI50 [8]	other results
CS(=O)(=O)OCCN(CCOS(C)(=O)=O)c1ccc(/C=N/c2ccc(-c3csc(COc4ccccc4)n3)cc2)cc1	5.85 µM (inactive)	15.1 µM (inactive)	13.1 µM (inactive)	GI50 [1]: 13.4 µM (inactive); GI50 [2]: 2.12 µM (inactive); GI50 [5]: 12.1 µM (inactive); GI50 [6]: 18.7 µM (inactive); GI50 [7]: 0.46 µM (active)
COc1ccc(S(=O)(=O)c2ccccc2[N+](=O)[O-])cc1	57.7 µM (inactive)	–	> 100 µM (inactive)	GI50 [1]: 77.8 µM (inactive); GI50 [5]: 92 µM (inactive); GI50 [7]: > 100 µM (inactive)
COC(=O)[C@@H](N1C(=O)c2ccccc2C1=O)C1(C)CC(Cl)=NO1 (stereo not given in full)	–	29.8 µM (inactive)	–	–
Cc1c(C2=NN=C(/N=N/c3c(O)cccc3O)/C2=C/c2ccccc2)c(=O)n(-c2ccccc2)n1C	> 100 µM (inactive)	–	> 100 µM (inactive)	GI50 [1]: > 100 µM (inactive); GI50 [2]: > 100 µM (inactive); GI50 [6]: > 100 µM (inactive); GI50 [7]: > 100 µM (inactive)
COc1ccc(N2C(=O)C3ON(C(C(N)=O)c4ccccc4)C(c4cc5ccccc5c5ccccc45)C3C2=O)cc1 (stereo not given)	–	> 50 µM (inactive)	–	–
O=C1C=CC[C@H]2O[C@@H](COC(=O)Cc3ccccc3)C[C@H]2O1	–	26.2 µM (inactive)	–	–
CC(C)(C)OC(=O)CCC1NC(=O)[C@@H]2Cc3c([nH]c4ccccc34)C(c3ccccc3)N2C1=O (stereo not given in full)	–	16.7 µM (inactive)	–	–
CN(C)CCNc1c([N+](=O)[O-])cc2c3c(cccc13)C(=O)N(CCN(C)C)C2=O	1.27 µM (inactive)	–	1.52 µM (inactive)	GI50 [1]: 1.6 µM (inactive); GI50 [2]: 1.55 µM (inactive); GI50 [6]: 1.61 µM (inactive); GI50 [7]: 1.07 µM (active)
Oc1ccc(O)c(CNc2ccccc2)c1	–	25.5 µM (inactive)	–	–
c1ccc2c(CN3CCN(Cc4c[nH]c5ccccc45)CC3)c[nH]c2c1	–	15.9 µM (inactive)	–	–
[O-]c1on[n+]2c1c(Nc1ccc(Cl)cc1)nc1ccccc12	> 100 µM (inactive)	–	> 100 µM (inactive)	GI50 [1]: > 100 µM (inactive); GI50 [2]: > 100 µM (inactive); GI50 [5]: > 100 µM (inactive); GI50 [6]: > 100 µM (inactive); GI50 [7]: > 100 µM (inactive)
CCOC1Oc2ccccc2-c2nc(N)ncc21 (stereo not given)	–	29.2 µM (inactive)	–	–
CCOC(=O)C1=C(c2ccccc2)C12N(Cc1ccccc1)C(=O)C2(c1ccccc1)c1ccccc1 (stereo not given)	–	36.9 µM (inactive)	–	–
CC(C)(C)OC(=O)NC(Cc1ccc(OCc2ccccc2)cn1)C(=O)NCc1ccccc1 (stereo not given)	–	29 µM (inactive)	–	–
O=[N+]([O-])c1ccc(Nc2cccc3c4cc[nH]c(-c5ccccc5)c-4nc23)c([N+](=O)[O-])c1	> 100 µM (inactive)	–	> 100 µM (inactive)	GI50 [1]: > 100 µM (inactive); GI50 [2]: > 100 µM (inactive); GI50 [6]: > 100 µM (inactive); GI50 [7]: > 100 µM (inactive)
OC1C[C@H](c2ccccc2)C2(C(O)c3ccccc3C2O)[C@@H](c2ccccc2)C1 (stereo not given in full)	–	> 100 µM (inactive)	–	–
Cc1ccc2c(c1)C1C(CO2)C(c2ccccc2)=NN1c1ccccc1 (stereo not given)	> 100 µM (inactive)	–	> 100 µM (inactive)	GI50 [1]: > 100 µM (inactive); GI50 [5]: > 100 µM (inactive); GI50 [6]: > 100 µM (inactive); GI50 [7]: > 100 µM (inactive)
CCOC(=O)Nc1ccc(S(=O)(=O)OC)cc1.CCOC(=O)Nc1ccc(S(=O)(=O)OC)cc1.NC(=O)NCCO	22.1 µM (inactive)	–	7.08 µM (inactive)	GI50 [1]: 29.9 µM (inactive); GI50 [9]: 46.5 µM (inactive); GI50 [5]: 29.4 µM (inactive); GI50 [6]: > 50 µM (inactive); GI50 [7]: 29.2 µM (inactive)
COC(=O)Cc1cc(=O)n2c([nH]c3ccccc32)c1C#N	> 100 µM (inactive)	–	30.8 µM (inactive)	GI50 [1]: > 100 µM (inactive); GI50 [2]: > 100 µM (inactive); GI50 [6]: > 100 µM (inactive); GI50 [7]: > 100 µM (inactive)
c1cc(Sc2nc(Sc3ccncc3)nc(Sc3ccncc3)n2)ccn1	–	> 100 µM (inactive)	–	–
COc1ccc2c(c1)C(OC)C1c3c(cc4c(c3-2)OCO4)CCN1C (stereo not given)	–	1.96 µM (inactive)	–	–
C=CCNC(=O)C(C)C1CCC2(C)C=CC(=O)C(C)=C2C1O (stereo not given)	> 100 µM (inactive)	–	> 100 µM (inactive)	GI50 [1]: > 100 µM (inactive); GI50 [2]: > 100 µM (inactive); GI50 [6]: > 25.8 µM (inactive); GI50 [7]: > 100 µM (inactive)

SMILES	GI50 [3]	GI50 [4]	GI50 [8]	other results
O=C1OC(c2ccccc2)=N/C1=C\c1cn[nH]n1	–	> 100 µM (inactive)	–	–
Cc1cc(Cl)ccc1NC(=O)CCCC(=O)C(C(=O)c1ccccc1)c1ccccc1 (stereo not given)	> 100 µM (inactive)	–	> 100 µM (inactive)	GI50 [1]: > 100 µM (inactive); GI50 [9]: > 100 µM (inactive); GI50 [5]: > 100 µM (inactive); GI50 [6]: > 100 µM (inactive); GI50 [7]: > 100 µM (inactive)
COC1(OC)CCC2(C)OC(c3ccccc3)C1O2 (stereo not given)	> 100 µM (inactive)	–	> 100 µM (inactive)	GI50 [2]: > 100 µM (inactive); GI50 [5]: > 100 µM (inactive); GI50 [7]: > 100 µM (inactive)
O=C(Oc1ccc(S(=O)(=O)F)cc1F)c1ccccc1Cl	–	25.2 µM (inactive)	–	–
COC(=O)C1CC2(c3ccccc3)C(=O)c3ccccc3N2O1 (stereo not given)	46.6 µM (inactive)	–	78.7 µM (inactive)	GI50 [1]: 64.4 µM (inactive); GI50 [5]: 50 µM (inactive); GI50 [6]: > 100 µM (inactive); GI50 [7]: 31.6 µM (inactive)
c1c(N2CCOCC2)s[s+]c1N1CCOCC1	> 100 µM (inactive)	–	> 100 µM (inactive)	GI50 [5]: > 100 µM (inactive); GI50 [6]: > 100 µM (inactive); GI50 [7]: > 100 µM (inactive)
O=C(Cn1cc(F)c(=O)[nH]c1=O)C12CC3CC(CC(C3)C1)C2	–	> 100 µM (inactive)	–	–
COC(=O)C1=C(C(=O)OC)SC(=C(/N=N/c2ccccc2)c2ccccc2)S1	–	–	> 100 µM (inactive)	GI50 [1]: > 100 µM (inactive); GI50 [9]: > 100 µM (inactive); GI50 [5]: 58.5 µM (inactive); GI50 [6]: > 100 µM (inactive); GI50 [7]: > 100 µM (inactive)
N#C/C(=C/NC(=S)NCc1ccccc1)C(N)=O	–	> 100 µM (inactive)	–	–
[O-]c1c[n+](CC[n+]2cc([O-])on2)no1	–	> 100 µM (inactive)	–	–
COc1cc([C@@H]2c3cc4c(cc3[C@H](OC3OC5COC(C(C)C)OC5C(O)C3O)C3COC(=O)[C@@H]32)OCO4)cc(OC)c1OC (stereo not given in full)	–	3.17 µM (inactive)	–	–
O[C@@H]1CCC[C@@H]2NC[C@@H](c3ccc4c(c3)OCO4)[C@H]12	–	99.1 µM (inactive)	–	–
Cc1ccc(NC(=O)/C=C/c2ccccc2)c(C)c1	–	21.7 µM (inactive)	–	–
COC(=O)C1(CCCCCBr)CCCCCCCCCCC1=O (stereo not given)	–	> 100 µM (inactive)	–	–
COc1ccc(-c2nc(-c3cc4ccccc4oc3=O)cs2)cc1	–	40.9 µM (inactive)	–	–
CC1(C)OC(C(N)=O)=C(C(N)=O)O1	> 100 µM (inactive)	–	> 100 µM (inactive)	GI50 [1]: > 100 µM (inactive); GI50 [2]: > 100 µM (inactive); GI50 [5]: > 100 µM (inactive); GI50 [7]: > 100 µM (inactive)
O=C(CSc1nc2ccc([N+](=O)[O-])cc2s1)c1ccc2ccccc2c1	–	89.5 µM (inactive)	–	–
COc1ccc(C(=O)C(C(=O)C(=O)NCCCNC(=O)C(=O)C(C(=O)c2ccc(OC)cc2)c2ccc(OC)cc2)c2ccc(OC)cc2)cc1 (stereo not given)	> 100 µM (inactive)	–	> 100 µM (inactive)	GI50 [2]: > 100 µM (inactive); GI50 [5]: > 100 µM (inactive); GI50 [6]: > 100 µM (inactive); GI50 [7]: > 100 µM (inactive)
COC(=N)c1ncn(Cc2ccccc2)c1N	–	> 100 µM (inactive)	–	–
C=C(Cl)C(Cl)(CBr)CCC(Cl)C(C)C (stereo not given)	–	1.16 µM (inactive)	–	–
O=C(O)CCC(NC(=O)c1ccc(Nc2cnc3cc(C(F)(F)F)ccc3n2)cc1)C(=O)O (stereo not given)	> 100 µM (inactive)	–	> 100 µM (inactive)	GI50 [2]: > 100 µM (inactive); GI50 [6]: > 100 µM (inactive); GI50 [7]: > 100 µM (inactive)
CCC1(C)N=c2c(ncn2N=C(C)C)=C(C(N)=O)N1 (stereo not given)	–	> 100 µM (inactive)	–	–

SMILES	GI50 [3]	GI50 [4]	GI50 [8]	other results
CCN(CC)CCCNc1nncc2c(C)c3[nH]c4ccccc4c3cc12	–	0.865 µM (active)	–	–
Br[Se]c1ccccn1	–	18.7 µM (inactive)	–	–
O=c1ccc2ccccc2o1 [COUMARIN]	> 100 µM (inactive)	–	> 100 µM (inactive)	GI50 [1]: > 100 µM (inactive); GI50 [2]: > 100 µM (inactive); GI50 [5]: > 100 µM (inactive); GI50 [6]: > 100 µM (inactive)
COc1ccc(-c2nc3ccccc3c(=S)n2OC(C)=O)cc1	–	12.2 µM (inactive)	–	–
CC12CCC3C(CCC4(O)C=CCCC34C=O)C1(O)CC(O)C2c1ccc(=O)oc1 (stereo not given)	< 0.05 µM (active)	–	0.0578 µM (active)	GI50 [1]: 0.0851 µM (active); GI50 [2]: 0.0873 µM (active); GI50 [6]: 0.0593 µM (active); GI50 [7]: < 0.05 µM (active)
CCOC(=O)c1csc(-c2nc(CCNC(=O)c3ccccc3)sc2Cl)n1	–	> 100 µM (inactive)	–	–
N#Cc1c2c(c(N)oc1=O)C(c1ccccc1)CC(=O)N2 (stereo not given)	–	> 100 µM (inactive)	–	–
O=C1OC2(c3ccc(O)cc3Oc3cc(O)ccc32)c2c1c(-c1ccccc1)c(-c1ccccc1)c(-c1ccccc1)c2-c1ccccc1	–	22 µM (inactive)	–	–
CC[C@]1(Cc2ccc(OC)c(OC)c2)C=[N+]([O-])O[C@H](OCc2ccccc2)[C@@H]1OC(C)=O	–	20.4 µM (inactive)	–	–
CC1=NN(C(=O)c2ccc(Cl)cc2)C(=O)/C1=C/c1cccc([N+](=O)[O-])c1	> 100 µM (inactive)	–	> 100 µM (inactive)	GI50 [1]: > 100 µM (inactive); GI50 [2]: > 100 µM (inactive); GI50 [5]: > 100 µM (inactive); GI50 [6]: > 100 µM (inactive)
COc1ccc2c3c1OC1C(OC)(OC)C=C[C@@]4(Br)[C@@H](C2)N(CC2CC2)CC[C@]314 (stereo not given in full)	–	41.7 µM (inactive)	–	–
CC(C)c1ccc2c(c1)C=C1OC(=O)[C@]3(C)CCC[C@@]2(C)C13 (stereo not given in full)	–	> 100 µM (inactive)	–	–
CC1=CC(=O)N(n2c(C)n[nH]c2=O)C1=O	–	> 100 µM (inactive)	–	–
Nc1cc2c(c3ccccc13)C(CCl)CN2C(=O)c1cc2cc(NC(=O)c3cc4ccccc4o3)ccc2[nH]1 (stereo not given)	–	0.0169 µM (active)	–	–
CCOC(=O)c1c(N2CCOCC2)[nH]c(=O)c(C(c2c(Cl)cccc2Cl)c2c(O)c(C(=O)OCC)c(N3CCOCC3)[nH]c2=O)c1O	–	4.86 µM (inactive)	–	–
CSCCCCCCCCCCOc1ccc(C=C2C(=C(C#N)C#N)c3ccccc3C2=C(C#N)C#N)cc1	–	20.5 µM (inactive)	–	–
O=C(O)CCC1(c2ccccc2)NC(=O)NC1=O (stereo not given)	–	> 100 µM (inactive)	–	–
O=[N+]([O-])c1cccc2nccc(NCCCO)c12	–	13.1 µM (inactive)	–	–
COc1cc(/C=C2\CCC(C)C3=C(c4cc(OC)c(OC)c(OC)c4)C(C#N)=C(N)OC32)cc(OC)c1OC (stereo not given)	–	2.1 µM (inactive)	–	–
O=Cc1c2ccccc2n2ccc3c4ccccc4[nH]c3c12	–	> 10 µM (inactive)	–	–
